Patent US20060024414A1, “Methods for preserving food products” (Kraft Foods Holdings, Inc., priority 2004, published 2006)

Experiments:
[1] = system: Listeria monocytogenes; settings: cells sensitized with the antioxidant at the time of pressure treatment; Mackey et al. 1995; cited from earlier work
[2] = system: Listeria monocytogenes; settings: model milk system; Payne et al. 1989; cited from earlier work
[3] = system: Listeria monocytogenes OSY-328; experiment: Inoculated bagged Vienna sausage challenge, warm enrichment/plating for survivors; format: cell-based; settings: about 5 min; for Percentage of Bags Testing Positive For Listeria in Batch of 5 (±S.D.): sausage about 10^6 CFU/g; for Percentage of Bags Testing Positive For Listeria in Batch of 3 (±S.D.): TBHQ 300 ppm, sausage about 10^6 per g
Method: (§1) In another embodiment, a food substrate processed according to methods of this invention has nondetectable levels of Listeria (even if contamination has occurred). […] The mixture is incubated at 37° C. for 48 hours, followed by the enrichment (mixture) being streaked on Oxford agar or […] agar, and observing the streaked plate for the presence/absence of Listeria. […] Tailing effects also may be reduced or eliminated by methods of the present invention. The presence or absence of other microorganisms may be detected using similar techniques modified for the specific microorganism under consideration. The edible hydroquinone was tert-butylhydroquinone (TBHQ) at a level of either 0 or 100 ppm. The tert-butylhydroquinone was a food grade material obtained from Sigma Chemical Co. (St. Louis, Mo.). The lantibiotic was nisin at a level of either 0 or 100 IU/g. The nisin used was either pure nisin or a commercial nisin ([…]®), both from Aplin & Barrett, Ltd. (Trowbridge, England). […] Nisin samples were prepared by dissolving nisin powder in distilled water, adjusting the pH to 2 with HCl, and sterilizing at 121° C. for 10 minutes. Samples were prepared and used on the same day for each experiment. Three strains of Listeria monocytogenes were used in these challenge studies. Listeria monocytogenes Scott A, OSY-8578, and OSY-328, were obtained from the Food Safety Laboratory of the Department of Food Science and Technology at The Ohio State University (Columbus, Ohio). All experiments were carried out with cultures in stationary phase (grown in tryptose broth (TB; Difco Laboratories, Detroit, Mich.) for 18 hours at 37° C.). […] The hydrostatic pressure used was 600 MPa. For comparison purposes, samples were also treated with no hydrostatic pressure (i.e., under atmospheric pressure). A hydrostatic food processor (Quintus QFP-6, ABB Autoclave Systems, Inc., Columbus, Ohio) was used with a pressure transmitting fluid containing a water/propylene glycol (1:1 vol/vol; Houghto-Safe 620-TY, Houghton International, Inc., Valley Forge, Pa.). Samples were held in a refrigerator before processing and placed on ice following treatment. The temperature during each run was monitored using a thermocouple and a datalogger (Campbell Scientific, Inc., Logan, Utah). […] Canned Vienna sausage (Armour®, The Dial Corporation, Scottsdale, Ariz.) was purchased from local grocery stores. […] One milliliter of each additive, alone or in combinations, was added, and the bags were sealed using vacuum […], Kansas City, Mo.). […] Non-pressurized samples were treated in a similar manner except that no pressure was applied. After high pressure processing, bags were opened aseptically. […] The presence or absence of L. monocytogenes survivors in the samples was determined by streaking the incubated mixture onto Oxford agar and/or […] agar. Each test run consisted of 5 tested bags at a given set of variables; the experiment was repeated 4 times. Treatment conditions required for essentially total elimination of L. monocytogenes were determined using essentially the same materials and procedures as used in Example 1 except that the nisin level was 0, 100, or 200 IU/g; the hydroquinone level was 0, 100, 200, or 300 ppm; and each experiment was repeated 3 times.

[4] = system: Listeria monocytogenes OSY-8578; experiment: as above; format: cell-based; settings: about 5 min; for Percentage of Bags Testing Positive For Listeria in Batch of 5 (±S.D.): sausage about 10^6 CFU/g; for Percentage of Bags Testing Positive For Listeria in Batch of 3 (±S.D.): TBHQ 300 ppm, sausage about 10^6 per g
Method: as §1

[5] = system: Listeria monocytogenes Scott A; experiment: as above; format: cell-based; settings: about 5 min; for Percentage of Bags Testing Positive For Listeria in Batch of 5 (±S.D.): sausage about 10^6 CFU/g; for Percentage of Bags Testing Positive For Listeria in Batch of 3 (±S.D.): TBHQ 300 ppm, sausage about 10^6 per g
Method: as §1

[6] = system: Listeria monocytogenes OSY-328; experiment: Pressure inactivation in phosphate buffer, plate count; format: cell-based; settings: TBHQ about 100 ppm
Method: (§2) Three strains of Listeria monocytogenes identified in Example 1 were grown in tryptose broth for 18 hours at 37° C. Cultures were centrifuged at 10,000 rpm for 15 minutes at 4° C. Cell pellets were resuspended in phosphate buffer (pH 7.0) and the cell population of each strain was adjusted to 10^9 CFU/ml. Tert-butylhydroquinone was added at about 100 ppm (10% vol/vol TBHQ/culture). Preparation of sample bags and the high pressure treatment procedures were same as indicated in Example 1. Pressures tested were 300, 500, and 700 MPa. Control and high pressure-treated treated samples were serially diluted in 0.1% peptone water and spread-plated on tryptose agar. The plates were incubated at 37° C. for 48-72 hours and the colonies were counted.
(§3) The detection level for enumeration was 10 CFU/ml. The initial population of OSY-328 averaged about 8.9 logs; therefore, more than 7.9 log reduction indicates below the detection level.

[7] = system: Listeria monocytogenes OSY-8578; experiment: as above; format: cell-based; settings: TBHQ about 100 ppm
Method: as §2, §3

[8] = system: Listeria monocytogenes Scott A; experiment: as above; format: cell-based; settings: TBHQ about 100 ppm
Method: as §2, §3

[9] = system: Listeria monocytogenes strains; experiment: Tailing behaviour during pressure treatment in phosphate buffer; format: cell-based; settings: combination of high pressure (300, 500, 700 MPa) and TBHQ about 100 ppm
Method: as §2, §3

[10] = Run 3: 0 MPa, nisin 0 IU/g, TBHQ 100 ppm
[11] = Run 7: 600 MPa, nisin 0 IU/g, TBHQ 100 ppm
[12] = 300 MPa, 0 min (come-up, immediate depressurization)
[13] = 500 MPa, 0 min (come-up, immediate depressurization)
[14] = 700 MPa, 0 min (come-up, immediate depressurization)
[15] = Run 2: 0 MPa, nisin 100 IU/g, TBHQ 0 ppm
[16] = Run 6: 600 MPa, nisin 100 IU/g, TBHQ 0 ppm

Compound: COc1ccc(O)c(C(C)(C)C)c1 [BHA, butylated hydroxyanisole]
- resistance of Listeria monocytogenes to high hydrostatic pressure treatment (sensitizing effect) [1]: reduced

Compound: Cc1cc(C(C)(C)C)c(O)c(C(C)(C)C)c1 [BHT, Butylated hydroxy toluene]
- resistance of Listeria monocytogenes to high hydrostatic pressure treatment (sensitizing effect) [1]: not effective

Compound: CCCOC(=O)c1ccc(O)cc1 [Propyl paraben]
- antimicrobial activity against Listeria monocytogenes [2]: only consistently active inhibitor

Compound: CC(C)(C)c1cc(O)ccc1O [TBHQ, tert-butylhydroquinone]
- Percentage of Bags Testing Positive For Listeria in Batch of 5 (±S.D.) [3, 10]: 100%
- Percentage of Bags Testing Positive For Listeria in Batch of 5 (±S.D.) [3, 11]: 20 (±16) %
- Percentage of Bags Testing Positive For Listeria in Batch of 3 (±S.D.) ([3]; Run 10: 0 MPa, nisin 0 IU/g): 100%
- Percentage of Bags Testing Positive For Listeria in Batch of 3 (±S.D.) ([3]; Run 15: 600 MPa, nisin 0 IU/g): 0%
- Percentage of Bags Testing Positive For Listeria in Batch of 5 (±S.D.) [4, 10]: 100%
- Percentage of Bags Testing Positive For Listeria in Batch of 5 (±S.D.) [4, 11]: 25 (±30) %
- Percentage of Bags Testing Positive For Listeria in Batch of 3 (±S.D.) ([4]; Run 10: 0 MPa, nisin 0 IU/g): 100%
- Percentage of Bags Testing Positive For Listeria in Batch of 3 (±S.D.) ([4]; Run 15: 600 MPa, nisin 0 IU/g): 0%
- Percentage of Bags Testing Positive For Listeria in Batch of 5 (±S.D.) [5, 10]: 100%
- Percentage of Bags Testing Positive For Listeria in Batch of 5 (±S.D.) [5, 11]: 15 (±30) %
- Percentage of Bags Testing Positive For Listeria in Batch of 3 (±S.D.) ([5]; Run 10: 0 MPa, nisin 0 IU/g): 100%
- Percentage of Bags Testing Positive For Listeria in Batch of 3 (±S.D.) ([5]; Run 15: 600 MPa, nisin 0 IU/g): 0%
- Average Log Reduction [6, 12]: 0 log
- Average Log Reduction ([6]; 300 MPa, 1 min): 0 log
- Average Log Reduction ([6]; 300 MPa, 5 min): 0 log
- Average Log Reduction ([6]; 300 MPa, 10 min): 0.2 log
- Average Log Reduction ([6]; 300 MPa, 20 min): 1.0 log
- Average Log Reduction ([6]; 300 MPa, 30 min): 1.6 log
- Average Log Reduction ([6]; 300 MPa, 40 min): 2.3 log
- Average Log Reduction ([6]; 300 MPa, 50 min): 2.4 log
- Average Log Reduction ([6]; 300 MPa, 60 min): 3.1 log
- Average Log Reduction [6, 13]: 0.2 log
- Average Log Reduction ([6]; 500 MPa, 5 min): 7.6 log
- Average Log Reduction ([6]; 500 MPa, 10 min): 7.8 log
- Average Log Reduction ([6]; 500 MPa, 20 min): ≧7.9 log
- Average Log Reduction ([6]; 500 MPa, 30 min): 7.8 log
- Average Log Reduction ([6]; 500 MPa, 40 min): ≧7.9 log
- Average Log Reduction ([6]; 500 MPa, 50 min): ≧7.9 log
- Average Log Reduction [6, 14]: 5.3 log
- Average Log Reduction ([6]; 700 MPa, 1 min): ≧8.0 log
- Average Log Reduction ([6]; 700 MPa, 5 min): ≧8.0 log
- Average Log Reduction ([6]; 700 MPa, 10 min): ≧7.9 log
- Average Log Reduction ([6]; 700 MPa, 15 min): ≧7.9 log
- Average Log Reduction ([6]; 700 MPa, 20 min): 7.8 log
- Average Log Reduction ([6]; 700 MPa, 30 min): ≧8.0 log
- Average Log Reduction [7, 12]: 0 log
- Average Log Reduction ([7]; 300 MPa, 1 min): 0.2 log
- Average Log Reduction ([7]; 300 MPa, 5 min): 0.2 log
- Average Log Reduction ([7]; 300 MPa, 10 min): 0.8 log
- Average Log Reduction ([7]; 300 MPa, 20 min): 3.8 log
- Average Log Reduction ([7]; 300 MPa, 30 min): 5.0 log
- Average Log Reduction ([7]; 300 MPa, 40 min): 5.7 log
- Average Log Reduction ([7]; 300 MPa, 50 min): 7.2 log
- Average Log Reduction [7, 13]: 0.2 log
- Average Log Reduction ([7]; 500 MPa, 1 min): 7.2 log
- Average Log Reduction ([7]; 500 MPa, 5 min): 7.6 log
- Average Log Reduction ([7]; 500 MPa, 10 min): ≧8.0 log
- Average Log Reduction ([7]; 500 MPa, 20 min): 7.9 log
- Average Log Reduction ([7]; 500 MPa, 30 min): 7.8 log
- Average Log Reduction ([7]; 500 MPa, 40 min): ≧8.0 log
- Average Log Reduction [7, 14]: 7.6 log
- Average Log Reduction ([7]; 700 MPa, 0.5 min): 7.7 log
- Average Log Reduction ([7]; 700 MPa, 1 min): 7.8 log
- Average Log Reduction ([7]; 700 MPa, 5 min): ≧8.0 log
- Average Log Reduction ([7]; 700 MPa, 10 min): ≧8.0 log
- Average Log Reduction ([7]; 700 MPa, 15 min): ≧8.0 log
- Average Log Reduction ([7]; 700 MPa, 20 min): ≧8.0 log
- Average Log Reduction [8, 12]: 0 log
- Average Log Reduction ([8]; 300 MPa, 1 min): 0 log
- Average Log Reduction ([8]; 300 MPa, 5 min): 2.2 log
- Average Log Reduction ([8]; 300 MPa, 10 min): 6.5 log
- Average Log Reduction ([8]; 300 MPa, 20 min): 7.3 log
- Average Log Reduction ([8]; 300 MPa, 30 min): 7.3 log
- Average Log Reduction ([8]; 300 MPa, 40 min): ≧8.0 log
- Average Log Reduction [8, 13]: 3.8 log
- Average Log Reduction ([8]; 500 MPa, 1 min): 7.9 log
- Average Log Reduction ([8]; 500 MPa, 5 min): 8.0 log
- Average Log Reduction ([8]; 500 MPa, 10 min): ≧8.0 log
- Average Log Reduction ([8]; 500 MPa, 15 min): ≧8.0 log
- Average Log Reduction ([8]; 500 MPa, 20 min): ≧8.0 log
- Average Log Reduction ([8]; 500 MPa, 30 min): ≧8.0 log
- Average Log Reduction [8, 14]: 7.7 log
- Average Log Reduction ([8]; 700 MPa, 0.5 min): 7.5 log
- Average Log Reduction ([8]; 700 MPa, 1 min): ≧8.0 log
- Average Log Reduction ([8]; 700 MPa, 2 min): ≧8.0 log
- Average Log Reduction ([8]; 700 MPa, 5 min): ≧8.0 log
- Average Log Reduction ([8]; 700 MPa, 10 min): ≧8.0 log
- Average Log Reduction ([8]; 700 MPa, 15 min): ≧8.0 log
- tailing phenomenon [9]: eliminated the tailing phenomenon

Compound: nisin (ITSISLCTPGCKTGALMGCNMKTATCHCSIHVSK; not fully specified; Lantibiotic nisin-A; UniProt P13068 24-57, looked up) [lantibiotic; antimicrobial polypeptide produced by Lactococcus lactis; pure nisin or commercial Nisaplin from Aplin & Barrett]
- Percentage of Bags Testing Positive For Listeria in Batch of 5 (±S.D.) [3, 15]: 100%
- Percentage of Bags Testing Positive For Listeria in Batch of 5 (±S.D.) [3, 16]: 10 (±20) %
- Percentage of Bags Testing Positive For Listeria in Batch of 5 (±S.D.) [4, 15]: 100%
- Percentage of Bags Testing Positive For Listeria in Batch of 5 (±S.D.) [4, 16]: 30 (±38) %
- Percentage of Bags Testing Positive For Listeria in Batch of 5 (±S.D.) [5, 15]: 100%
- Percentage of Bags Testing Positive For Listeria in Batch of 5 (±S.D.) [5, 16]: 15 (±19) %
